How the values were obtained:
Assay in all cases: cell-based
PTGER2 (EP2) = PTGER2 (EP2) (Homo sapiens, UniProt P43116)
PTRGER4 (EP4) = PTRGER4 (EP4) (Homo sapiens, UniProt P35408);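 also: assay plate preincubated 15 min at 37 °C, after which PGE2 was added at 20 nM final and incubation continued 120 min at 37 °C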
From the text: The assay is using the PathHunter™ HEK 293 PTGER2 and PTGER4 b-arrestin cell lines from DiscoverX. The system is based on the Enzyme Fragment Complementation Technology. Two complementing fragments of the b-galactosidase enzyme are expressed within stably transfected cells. The larger portion of b-gal, termed EA for Enzyme Acceptor, is fused to the C-terminus of b-arrestin 2. The smaller fragment, termed ProLink™ tag, is fused to PTGER2 (EP2) or PTRGER4 (EP4) at the C-terminus. Upon activation, b-arrestin is recruited which forces the interaction of ProLink and EA, allowing complementation of the two fragments of b-gal and the formation of a functional enzyme which is capable of hydrolysing the substrate and generating a chemiluminescent signal.
The HEK 293 PTGER4 b-arrestin cells (DiscoverX 93-030-4C1) are detached from culture dishes with a cell dissociation buffer (Invitrogen, 13151-014), and collected in growing medium (GM: DMEM+Glutamax-I (Invitrogen 32430)/10% FCS, 1% Penicilin/streptomycin). 5000 cells per well of a 384 well plate (white with white bottom Greiner 781080) are seeded in 20 ul per well of GM. Plate is incubated at 37° C., 5% CO2 for 24 hours.
Stock solutions of test compounds are made at a concentration of 10 mM in DMSO, and serially diluted in DMSO to concentrations required for inhibition dose response curves (tested concentration range 10 μM-2 nM or 1 μM-0.2 nM).
PGE2 (Cayman 14010, stock solution: 100 uM in DMSO) is used as agonist at 20 nM final concentration, corresponding to EC80.
Five microliters of diluted compounds are transferred into the assay plate. Plate is pre-incubated 15 minutes at 37° C. Then five microliters of PGE2 (final conc. 20 nM) are transferred into the assay plate. Plate is incubated 120 minutes at 37° C.
Twelve μl of reagent are transferred to the assay plate and incubate for 1 hour at room temperature in the dark. Luminescence counts are read on a BMG Fluostar Optima reader according to manufacturers instructions.
For each compound concentration calculate of the percentage of activity compared to DMSO control value as average±STDEV. (each concentration is measured in duplicate)
(§1) When compounds were measured multiple times, mean values are given.

EP2 = EP2 (Homo sapiens, UniProt P43116);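 also: SF295 glioblastoma cells with endogenous EP2 only, PGE2-stimulated cAMP accumulation read by HTRF competitive immunoassay, 45 min pre-incubation then 30 min at room temperature, IBMX in buffer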
Sequence of EP2 (P43116 whole entry): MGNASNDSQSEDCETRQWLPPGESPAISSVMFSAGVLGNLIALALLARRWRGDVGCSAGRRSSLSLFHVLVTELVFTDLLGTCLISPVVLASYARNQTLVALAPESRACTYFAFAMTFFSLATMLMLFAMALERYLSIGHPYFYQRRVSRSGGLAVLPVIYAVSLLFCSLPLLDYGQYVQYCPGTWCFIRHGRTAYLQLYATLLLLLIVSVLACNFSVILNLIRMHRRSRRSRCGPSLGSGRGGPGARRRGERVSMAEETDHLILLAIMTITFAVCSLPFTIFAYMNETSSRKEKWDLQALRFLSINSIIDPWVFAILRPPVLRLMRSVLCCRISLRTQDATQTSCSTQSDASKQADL

EP4 = EP4 (Homo sapiens, UniProt P35408);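 also: inhibition of PGE2-evoked (6 nM) cAMP accumulation in BT549 breast cancer cells endogenously expressing EP4, cAMP read by HTRF competitive immunoassay after 30 min at room temperature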
Sequence of EP4 (P35408 whole entry): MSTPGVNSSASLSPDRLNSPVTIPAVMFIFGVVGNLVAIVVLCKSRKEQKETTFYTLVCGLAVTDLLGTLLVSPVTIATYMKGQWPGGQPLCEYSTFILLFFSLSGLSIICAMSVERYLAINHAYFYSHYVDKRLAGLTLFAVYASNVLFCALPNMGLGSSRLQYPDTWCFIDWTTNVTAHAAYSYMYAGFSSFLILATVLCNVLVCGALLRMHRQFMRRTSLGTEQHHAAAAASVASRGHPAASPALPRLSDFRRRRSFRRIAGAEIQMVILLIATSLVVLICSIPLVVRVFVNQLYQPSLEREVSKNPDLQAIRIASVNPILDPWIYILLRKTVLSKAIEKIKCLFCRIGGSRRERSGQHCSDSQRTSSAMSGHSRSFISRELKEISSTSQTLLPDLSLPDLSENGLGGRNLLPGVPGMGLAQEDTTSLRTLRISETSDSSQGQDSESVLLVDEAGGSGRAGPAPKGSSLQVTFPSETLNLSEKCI
From the text: Human tumor cell lines expressing endogenously either EP4 or EP2 are used and cAMP accumulation in cells upon PGE2 stimulation is monitored.
As a detection method for cAMP the HTRF (homogeneous time resolved fluorescence) Cisbio kit (HTRF cAMP dynamic 2 kit 20′000 tests Cisbio Cat. #62AM4PEC) was used, which is based on a competitive immunoassay using a Cryptate-labeled anti-cAMP antibody and d2-labeled cAMP. Native cAMP produced by cells or unlabeled cAMP (for the standard curve) compete with exogenously added d2-labeled cAMP (acceptor) for binding to monoclonal anti-cAMP-Eu3+ Cryptate (donor). A FRET signal (Fluorescence Resonance Energy Transfer) is obtained only if the labeled anti-cAMP antibody binds the d2 labelled cAMP, thus the specific signal (i.e. energy transfer) is inversely proportional to the concentration of cAMP in the standard or sample.
The BT549 cells (NCI/No. 0507282) are detached from culture dishes with a cell dissociation buffer (Invitrogen, 13151-014), and collected in growing medium (GM: RPM11640 (Invitrogen 21875)/10% FCS, 1% Penicilin/streptomycin). Cells are counted washed and resuspended in assay buffer (AB; HBSS, 20 mM HEPES, 0.2% BSA; 2 mM IBMX). 4′000 cells in 5 μl of AB are seeded per well of a small volume 384 well plate (black with flat bottom, Greiner 784076).
Stock solutions of test compounds are made at a concentration of 10 mM in DMSO, and serially diluted in DMSO to concentrations required for inhibition dose response curves (tested concentration range 30 μM-0.4 nM; 30 μM-0.015 nM or 1 μM-0.01 nM).
PGE2 (Cayman 14010, stock solution: 6 μM in DMSO) is used as agonist at 6 nM final concentration, corresponding to EC80.
Two point five microliters of diluted compounds are transferred into the assay plate. Plate is pre-incubated 45 minutes at room temperature. Subsequently, 2.5 microliters of PGE2 (final conc. 6 nM) are transferred into the assay plate. Plate is incubated 30 minutes at room temperature.
For each compound concentration the percentage of cAMP compared to DMSO control value as average±STDEV (each concentration is measured in duplicate) is calculated.
as §1

Sequence of PTRGER4 (EP4) (P35408 whole entry): as above
Sequence of PTGER2 (EP2) (P43116 whole entry): as the sequence (P43116 whole entry) above

| SMILES | IC50 (PTGER2 (EP2)) [µM] | IC50 (PTRGER4 (EP4)) [µM] | IC50 (EP2) [µM] | IC50 (EP4) [µM] |
| --- | --- | --- | --- | --- |
| COc1cc(-c2cc(NCCc3c(F)cc(Br)cc3F)ncn2)sc1C(=O)O [Example 176, 5-{6-[2-(4-Bromo-2,6-difluoro-phenyl)-ethylamino]-pyrimidin-4-yl}-3-methoxy-thiophene-2-carboxylic acid] | 0.022 | 0.075 | 0.009 | 0.006 |
| CCOc1cc(-c2cc(NCCc3c(C)cccc3OC)ncn2)sc1C(=O)O [Example 178, 3-Ethoxy-5-{6-[2-(2-methoxy-6-methyl-phenyl)-ethylamino]-pyrimidin-4-yl}-thiophene-2-carboxylic acid] | 0.029 | 0.404 | 0.01 | 0.134 |
| CCOc1cc(-c2cc(NCCc3c(F)cc(Br)cc3F)ncn2)ccc1C(=O)O [Example 180, 4-{6-[2-(4-Bromo-2,6-difluoro-phenyl)-ethylamino]-pyrimidin-4-yl}-2-ethoxy-benzoic acid] | 0.119 | 0.674 | 0.052 | 0.221 |
| CCOc1cc(-c2cc(NCCc3ccc(Cl)c(Cl)c3C)ncn2)sc1C(=O)O [Example 181, 5-{6-[2-(3,4-Dichloro-2-methyl-phenyl)-ethylamino]-pyrimidin-4-yl}-3-ethoxy-thiophene-2-carboxylic acid] | 0.165 | 0.096 | 0.092 | 0.034 |
| COc1cc(C(F)F)c(F)cc1CCNc1cc(-c2ccc(C(=O)O)c(OC3CCC3)c2)ncn1 [Example 184, 2-Cyclobutoxy-4-{6-[2-(4-difluoromethyl-5-fluoro-2-methoxy-phenyl)-ethylamino]pyrimidin-4-yl}-benzoic acid] | 0.127 | 0.14 | 0.63 | 0.25 |
| CCOc1cc(-c2cc(NCCc3cc(F)c(C(F)F)cc3OC)ncn2)sc1C(=O)O [Example 185, 5-{6-[2-(4-Difluoromethyl-5-fluoro-2-methoxy-phenyl)-ethylamino]-pyrimidin-4-yl}-3-ethoxy-thiophene-2-carboxylic acid] | 0.051 | 0.008 | 0.041 | 0.006 |
| COc1cc(C(F)F)c(F)cc1CCNc1cc(-c2ccc(C(=O)O)c(SC)c2)ncn1 [Example 187, 4-{6-[2-(4-Difluoromethyl-5-fluoro-2-methoxy-phenyl)-ethylamino]-pyrimidin-4-yl}-2-methylsulfanyl-benzoic acid] | 0.13 | 0.216 | 0.26 | 0.2 |
| COc1cc(C(F)(F)F)c(Cl)cc1CCNc1cc(-c2ccc(C(=O)O)c(SC)c2)ncn1 [Example 196, 4-{6-[2-(5-Chloro-2-methoxy-4-trifluoromethyl-phenyl)-ethylamino]-pyrimidin-4-yl}-2-methylsulfanyl-benzoic acid] | 0.235 | 0.113 | 0.4 | 0.107 |
| CCOc1cc(-c2cc(NCCc3c(C)cc(C)cc3OC)ncn2)sc1C(=O)O [Example 203, 3-Ethoxy-5-{6-[2-(2-methoxy-4,6-dimethyl-phenyl)-ethylamino]-pyrimidin-4-yl}-thiophene-2-carboxylic acid] | 0.081 | 0.092 | 0.027 | 0.011 |
| CCOc1cc(-c2cc(NCCc3ccc(OC(F)(F)F)cc3OC)ncn2)sc1C(=O)O [Example 210, 3-Ethoxy-5-{6-[2-(2-methoxy-4-trifluoromethoxy-phenyl)-ethylamino]-pyrimidin-4-yl}-thiophene-2-carboxylic acid] | 0.294 | 0.02 | 0.615 | 0.021 |
| CCOc1cc(C(F)(F)F)ccc1CCNc1cc(-c2ccc(C(=O)O)c(OCC)c2)ncn1 [Example 211, 2-Ethoxy-4-{6-[2-(2-ethoxy-4-trifluoromethyl-phenyl)-ethylamino]-pyrimidin-4-yl}-benzoic acid] | 0.106 | 0.126 | 0.148 | 0.17 |
| CCOc1cc(C(F)(F)F)ccc1CCNc1cc(-c2ccc(C(=O)O)c(SC)c2)ncn1 [Example 212, 4-{6-[2-(2-Ethoxy-4-trifluoromethyl-phenyl)-ethylamino]-pyrimidin-4-yl}-2-methylsulfanyl-benzoic acid] | 0.026 | 0.05 | 0.062 | 0.093 |
| CCCc1cc(-c2cc(NCCc3ccc(C(F)(F)F)cc3OCC)ncn2)ccc1C(=O)O [Example 213, 4-{6-[2-(2-Ethoxy-4-trifluoromethyl-phenyl)-ethylamino]-pyrimidin-4-yl}-2-propyl-benzoic acid] | 0.071 | 0.217 | 0.184 | 0.3 |
| CCOc1cc(C(F)(F)F)ccc1CCNc1cc(-c2cc(OCC)c(C(=O)O)s2)ncn1 [Example 215, 3-Ethoxy-5-{6-[2-(2-ethoxy-4-trifluoromethyl-phenyl)-ethylamino]-pyrimidin-4-yl}-thiophene-2-carboxylic acid] | 0.01 | 0.003 | 0.012 | 0.008 |
| CNc1cc(-c2cc(NCCc3c(F)cc(Br)cc3F)ncn2)ccc1C(N)=O [Example 216, 4-{6-[2-(4-Bromo-2,6-difluoro-phenyl)-ethylamino]-pyrimidin-4-yl}-2-methylamino-benzamide] | 0.021 | 0.017 | 0.023 | 0.067 |
| CCNc1cc(-c2cc(NCCc3c(F)cc(Br)cc3F)ncn2)ccc1C(N)=O [Example 217, 4-{6-[2-(4-Bromo-2,6-difluoro-phenyl)-ethylamino]-pyrimidin-4-yl}-2-ethylamino-benzamide] | 0.02 | 0.029 | 0.134 | 0.079 |
| CCOc1cc(-c2cc(NCCc3ccc(C(F)(F)F)cc3OC(F)F)ncn2)sc1C(=O)O [Example 219, 5-{6-[2-(2-Difluoromethoxy-4-trifluoromethyl-phenyl)-ethylamino]-pyrimidin-4-yl}-3-ethoxy-thiophene-2-carboxylic acid] | 0.302 | 0.096 | 0.332 | 0.042 |
| CNc1cc(-c2cc(NCCc3c(F)cc(Br)cc3F)ncn2)ccc1C(=O)O [Example 231, 4-{6-[2-(4-Bromo-2,6-difluoro-phenyl)-ethylamino]-pyrimidin-4-yl}-2-methylamino-benzoic acid] | 0.016 | 0.094 | 0.013 | 0.043 |
| CCOc1cc(-c2cc(NCCc3c(F)cc(Br)cc3F)ncn2)ccc1-c1noc(=O)[nH]1 [Example 234, 3-(4-{6-[2-(4-Bromo-2,6-difluoro-phenyl)-ethylamino]-pyrimidin-4-yl}-2-ethoxy-phenyl)-[1,2,4]oxadiazol-5(4H)-one] | 0.077 | 0.049 | 0.093 | 0.023 |
| O=c1[nH]c(-c2ccc(-c3cc(NCCc4c(F)cc(Br)cc4F)ncn3)cc2)no1 [Example 235, 3-(4-{6-[2-(4-Bromo-2,6-difluoro-phenyl)-ethylamino]-pyrimidin-4-yl}-phenyl)-[1,2,4]oxadiazol-5(4H)-one] | 0.043 | 0.089 | 0.203 | 0.149 |
| CC(C)COc1cc(-c2cc(NCCc3c(F)cc(Br)cc3F)ncn2)ccc1C(=O)O [Example 237, 4-{6-[2-(4-Bromo-2,6-difluoro-phenyl)-ethylamino]-pyrimidin-4-yl}-2-isobutoxy-benzoic acid] | 0.072 | 0.419 | 0.128 | 0.668 |
| CCOc1cc(-c2cc(NCCc3c(F)cc(Br)cc3F)ncn2)ccc1NC=O [Example 240, N-(4-{6-[2-(4-Bromo-2,6-difluoro-phenyl)-ethylamino]-pyrimidin-4-yl}-2-ethoxy-phenyl)-formamide] | 0.127 | 0.072 | 0.511 | 0.405 |
| CC(C)Cc1cc(-c2cc(NCCc3c(F)cc(Br)cc3F)ncn2)ccc1CC(=O)O [Example 244, (4-{6-[2-(4-Bromo-2,6-difluoro-phenyl)-ethylamino]-pyrimidin-4-yl}-2-isobutyl-phenyl)-acetic acid] | 0.364 | 0.251 | 1.13 | 0.28 |
| CCc1cc(-c2cc(NCCc3c(F)cc(Br)cc3F)ncn2)ccc1C(=O)OC [Example 245, 4-{6-[2-(4-Bromo-2,6-difluoro-phenyl)-ethylamino]-pyrimidin-4-yl}-2-ethyl-benzoic acid methyl ester] | 0.392 | 0.307 | 4.63 | 6.72 |
| CCCOc1cc(-c2cc(NCCc3c(F)cc(Br)cc3F)ncn2)ccc1CC(=O)O [Example 248, (4-{6-[2-(4-Bromo-2,6-difluoro-phenyl)-ethylamino]-pyrimidin-4-yl}-2-propoxy-phenyl)-acetic acid] | 0.226 | 0.311 | 0.635 | 0.299 |
| Cc1cc(-c2cc(NCCc3c(F)cc(Br)cc3F)ncn2)cc(C)c1O [Example 250, 4-{6-[2-(4-Bromo-2,6-difluoro-phenyl)-ethylamino]-pyrimidin-4-yl}-2,6-dimethyl-phenol] | 0.078 | 0.169 | 0.856 | 0.887 |
| O=C(O)Cc1ccc(-c2cc(NCCc3c(F)cc(Br)cc3F)ncn2)cc1OC(F)F [Example 252, (4-{6-[2-(4-Bromo-2,6-difluoro-phenyl)-ethylamino]-pyrimidin-4-yl}-2-difluoromethoxy-phenyl)-acetic acid] | 0.214 | 0.484 | 1.91 | 0.959 |
| O=C(O)c1ccc(-c2cc(NCCc3c(F)cc(Br)cc3F)ncn2)cc1OC1CC1 [Example 259, 4-{6-[2-(4-Bromo-2,6-difluoro-phenyl)-ethylamino]-pyrimidin-4-yl}-2-cyclopropoxy-benzoic acid] | 0.046 | 0.351 | 0.045 | 0.076 |

Reference: US11712438B2, “Phenyl derivatives as PGE2 receptor modulators” (IDORSIA PHARMACEUTICALS LTD, priority 2017, dated 2023)
